In series [1] the test system is IMR90 human fibroblasts and BEAS-2B normal lung epithelial cells. The experiment in a line: Cell viability of normal cells. The format is cell-based. The note with it: IMR90 and BEAS-2B. As to the method: The cells were plated 5000 per well in 96-well black plates with a clear bottom and maintained under normal conditions over night before the drug treatment. The cell viability was measured 4 days after treatment using PrestoBlue (Invitrogen cat No A13261). GraphPad Prism software was used to generate dose response curves and calculate IC50 values. Each experiment was repeated at least three times.

For series [2], the system named is EGF-responsive genes in A549 lung adenocarcinoma cells. The experiment in a line: EGF-induced gene expression by Chromatin RNA-seq in A549 cells. The format is cell-based, human. The following applies: A549 cells (KRAS G12S), treated prior to stimulation with EGF. As to the method:
In brief, the NEBNext Ultra RNA and the ChIP-Seq Library Prep Kits for Illumina (E7420, E6240, from New England Biolabs) were used to prepare the sequencing library. The sequencing was performed as a 75 bp single-end run using the NextSeq 500 High Output Kit provided by the Oncogenomics Core Facility at the Sylvester Comprehensive Cancer Center in the University of Miami Miller School of Medicine.
RNA-seq data were aligned to human genome (hg19 version) using TopHat2, and differential expression analysis was performed using Cuffdiff 2.2.1 with default parameters. […] The differential expression was considered significant when the q-value <0.05, fold change >2 and FPKM >1 for protein coding genes and FPKM >0.5 for eRNAs. Heat maps were generated using SpotFire with Decision Site for Functional Genomics (SpotFire Inc., Somerville, Mass., USA).

In series [3] the test system is Integrator and RNAPII recruitment to EGF-responsive IEGs. The experiment in a line: ChIP-seq of INTS11 and RNAPII recruitment after EGF stimulation. It is filed as cell-based, human. As to the method: Diagrams of EGR1, FOSB and NR4A1 genomic regions are indicated at the bottom. FIGS. 5B and 5C show the average profiles of INTS11 (top) and RNAPII (bottom) recruitment at 106 EGF-induced genes (FIG. 5B) and 106 control genes (FIG. 5C). ChIP-seq was performed before and after 20 minutes of EGF-induction, with or without the presence of ERK inhibitor. The average analysis was performed using two independent biological replicates.
ChIP-seq for INTS11 and RNAPII was performed before and after treatment of cells with ERK1/2 inhibitor (SCH772984). […] This was manifested by decreased occupancy of Integrator and RNAPII at the 5′-end and body of EGF-responsive genes (FIGS. 5A-5C). […]
ChIP-seq data analysis was performed as previously described. […] In brief, FASTQ data were processed with Trimmomatic to remove low-quality reads and then aligned to the human genome hg19 using bowtie2. […] In brief, RNAPII ChIP-seq density at the TSS (−30 bp to +300 bp) was divided by the read density over the rest of the gene body, plus an additional 1 kb beyond the transcription end site (TES). The log10(ratio) of genes (EGF, control and ERK inhibitor treatment) were calculated using all different isoforms available in the Hg19 RefSeq Annotation Table that were considered express (FPKM >1 in EGF treatment conditions) in our analysis.

The subject of the next series is RSK1 phosphorylation. Kind of series: Immunoblot of downstream MAPK target phosphorylation in HeLa cells. It is filed as cell-based, human. The note with it: SCH772984 1 μM for 3 hours. The protocol:
FIG. 4A is an immunoblot of HeLa cells that were transduced with doxycycline-inducible shRNAs targeting INTS11 and treated with ERK inhibitor (SCH772984, 1 μM) for 3 hours.
Integrator depletion abrogates EGF transcriptional responsiveness in HeLa cells. See Gardini, A. et al Molecular Cell 56, 128-139 (2014). To dissect the signaling pathway that mediates the EGF transcriptional response of immediate early genes (IEGs), HeLa cells were treated with an ERK1/2 inhibitor (SCH772984) prior to EGF stimulation and analyzed EGF responsive gene expression using Chromatin RNA-sequencing (ChromRNA-seq), which provides for an enriched fraction of nascent RNAs. There were 106 genes that consistently respond (2-fold induction) to EGF stimulation at the 20-minute time point.
Antibodies used for CHIP and immunoblot include: INTS11 (A301-274A, Bethyl Laboratories, Inc., Montgomery, Tex.), RNAPII (sc-899, Santa Cruz Biotechnology, Paso Robles, Calif.), GAPDH (sc-25778, Santa Cruz), phospo-ERK1/2 (#9101, Cell Signaling technology), ERK1/2 (#9102, Cell Signaling technology), Phospho-p90RSK (Thr359) (#8753, Cell Signaling technology), and RSK1 (#9333, Cell Signaling technology). Flag M2-conjugated beads (Sigma, 2220) were used for immunoprecipitation.

This note sets out measurements from patent US20190358220A1, “INTEGRATOR INHIBITORS AND METHODS FOR THEIR USE” (UNIVERSITY OF MIAMI, priority 2017, published 2019).

Regarding `O=C1C(=O)c2cccnc2-c2ncccc21` [phendione, 1,10-phenanthroline-5,6-dione], the “sensitivity of normal cells (cell viability)” value in series [1] is on record as “sensitive to phendione”.
With `O=C(Nc1ccc2[nH]nc(-c3ccncc3)c2c1)[C@@H]1CCN(CC(=O)N2CCN(c3ccc(-c4ncccn4)cc3)CC2)C1` [SCH772984], the “EGF responsiveness of EGF-responsive genes” value in series [2] was “specifically diminished the EGF responsiveness of most EGF-responsive genes”. Also, in series [3] (before and after 20 minutes of EGF induction), the “recruitment of Integrator and RNAPII to EGF-responsive IEGs” value was “diminished the immediate-early recruitment of Integrator and RNAPII”. Further, in series [3] (following EGF induction), the “transcriptional elongation (RNAPII traveling ratio)” value was “substantially decreased transcriptional elongation”. Further, the “phosphorylation of RSK1” value in the series with RSK1 phosphorylation is listed as “abrogation of downstream MAPK-mediated target phosphorylation of RSK1”.
